Laboratory results taken from PMC8611036, “An integrated method for optimized identification of effective natural inhibitors against SARS-CoV-2 3CLpro” (Scientific Reports, 2021).

tested on: SARS-CoV 3CLpro; settings: SARS-CoV 3CLpro inhibitors (training set), from literature IC50; ref: per compound; cited from earlier work

Structure (SMILES) | pIC50
O=C1C(=O)N(Cc2ccc(C(=O)N3CCCCC3)s2)c2ccc(I)cc21 [CMP100] | 4.757
C=C(N[C@@H](CC(C)C)C(=O)N[C@@H](CC1CCNC1=O)C(=O)Cn1[nH]c(=O)c2c([N+](=O)[O-])cccc2c1=O)[C@@H](NC(=O)[C@H](C)NC(=O)O)[C@@H](C)OCc1ccccc1 (stereo partly drawn) [CMP101] | 6.222
CC1=C(C(=O)OCCc2ccccc2)C(c2ccccc2[N+](=O)[O-])C2=C(CCCC2=O)N1 (stereo not drawn) [CMP102] | 5.602
COc1ccc(N2C(=O)NC(=O)/C(=C\c3cc(Cl)c(OCc4cccc(C(=O)O)c4)c(Cl)c3)C2=O)cc1 [CMP103] | 5.164
COc1ccc(C(c2c(O)c3cc(C)ccc3oc2=O)c2c(O)c3cc(C)ccc3oc2=O)cc1 [CMP105] | 5.02
C=CCSc1ccccc1NC(=O)/C=C/c1ccccc1 [CMP106] | 4.706
O=C(/C=C/c1ccccc1)Nc1ccccc1SC(=O)/C=C/c1ccccc1 [CMP108] | 5.975
COc1cc(C[S+]([O-])c2nc3cccnc3s2)oc(=O)c1 (stereo not drawn) [CMP109] | 5.143

same assay, conditions: SARS-CoV 3CLpro inhibitors (training set), literature values; ref: per compound; cited from earlier work

Structure (SMILES) | IC50
O=C1C(=O)N(Cc2ccc(C(=O)N3CCCCC3)s2)c2ccc(I)cc21 [CMP100] | 17.5 µM
C=C(N[C@@H](CC(C)C)C(=O)N[C@@H](CC1CCNC1=O)C(=O)Cn1[nH]c(=O)c2c([N+](=O)[O-])cccc2c1=O)[C@@H](NC(=O)[C@H](C)NC(=O)O)[C@@H](C)OCc1ccccc1 (stereo partly drawn) [CMP101] | 0.6 µM
CC1=C(C(=O)OCCc2ccccc2)C(c2ccccc2[N+](=O)[O-])C2=C(CCCC2=O)N1 (stereo not drawn) [CMP102] | 2.5 µM
COc1ccc(N2C(=O)NC(=O)/C(=C\c3cc(Cl)c(OCc4cccc(C(=O)O)c4)c(Cl)c3)C2=O)cc1 [CMP103] | 6.86 µM
COc1ccc(C(c2c(O)c3cc(C)ccc3oc2=O)c2c(O)c3cc(C)ccc3oc2=O)cc1 [CMP105] | 9.56 µM
C=CCSc1ccccc1NC(=O)/C=C/c1ccccc1 [CMP106] | 19.7 µM
O=C(/C=C/c1ccccc1)Nc1ccccc1SC(=O)/C=C/c1ccccc1 [CMP108] | 1.06 µM
COc1cc(C[S+]([O-])c2nc3cccnc3s2)oc(=O)c1 (stereo not drawn) [CMP109] | 7.2 µM

tested on: SARS-CoV 3CLpro; format: biochemical; settings: activity class by pIC50 threshold 6

Structure (SMILES) | Inact.(<6)/Act.(>=6)
O=C1C(=O)N(Cc2ccc(C(=O)N3CCCCC3)s2)c2ccc(I)cc21 [CMP100] | Inact. (Inact.(<6))
C=C(N[C@@H](CC(C)C)C(=O)N[C@@H](CC1CCNC1=O)C(=O)Cn1[nH]c(=O)c2c([N+](=O)[O-])cccc2c1=O)[C@@H](NC(=O)[C@H](C)NC(=O)O)[C@@H](C)OCc1ccccc1 (stereo partly drawn) [CMP101] | Act. (Act.(>=6))
CC1=C(C(=O)OCCc2ccccc2)C(c2ccccc2[N+](=O)[O-])C2=C(CCCC2=O)N1 (stereo not drawn) [CMP102] | Inact. (Inact.(<6))
COc1ccc(N2C(=O)NC(=O)/C(=C\c3cc(Cl)c(OCc4cccc(C(=O)O)c4)c(Cl)c3)C2=O)cc1 [CMP103] | Inact. (Inact.(<6))
COc1ccc(C(c2c(O)c3cc(C)ccc3oc2=O)c2c(O)c3cc(C)ccc3oc2=O)cc1 [CMP105] | Inact. (Inact.(<6))
C=CCSc1ccccc1NC(=O)/C=C/c1ccccc1 [CMP106] | Inact. (Inact.(<6))
O=C(/C=C/c1ccccc1)Nc1ccccc1SC(=O)/C=C/c1ccccc1 [CMP108] | Inact. (Inact.(<6))
COc1cc(C[S+]([O-])c2nc3cccnc3s2)oc(=O)c1 (stereo not drawn) [CMP109] | Inact. (Inact.(<6))
CC(C)(C)NC(=O)C(c1cccnc1)N(C(=O)c1cccs1)c1ccc(C(C)(C)C)cc1 (stereo not drawn) [CMP189] | Inact. (Inact.(<6))
COCCC(=O)Nc1ccc(N(C(=O)Cn2nnc3ccccc32)C(C)c2ccsc2)cc1 (stereo not drawn) [CMP252] | Inact. (Inact.(<6))
COC(=O)/C=C/[C@H](C[C@@H]1CCNC1=O)NC(=O)[C@H](CC(C)C)NC(=O)[C@@H](NC(=O)OCc1ccccc1)C(C)C [CMP253] | Inact. (Inact.(<6))
CCC(C)(C)NC(=O)[C@@H](c1ccn(C)c1)N(C(=O)Cn1nnc2ccccc21)c1ccc(NC(C)=O)cc1 [CMP254] | Inact. (Inact.(<6))
CC1CC(C)CN(S(=O)(=O)c2ccc3c(c2)C(=O)C(=O)N3)C1 (stereo not drawn) [CMP255] | Inact. (Inact.(<6))
O=C[C@H](Cc1cnc[nH]1)NC[C@@H]1C[C@H]2CCCC[C@@H]2CN1C(=O)c1ccc(Br)cc1 [CMP256] | Inact. (Inact.(<6))
O=C[C@H](Cc1cnc[nH]1)NC[C@H]1C[C@@H]2CCCC[C@H]2CN1C(=O)c1ccc(-c2ccccc2)cc1 [CMP257] | Inact. (Inact.(<6))
O=C[C@H](Cc1c[nH]cn1)NC[C@@H]1C[C@H]2CCCC[C@@H]2CN1C(=O)c1ccc(F)cc1 [CMP258] | Inact. (Inact.(<6))
O=C[C@H](Cc1cnc[nH]1)NC[C@@H]1C[C@H]2CCCC[C@@H]2CN1C(=O)c1ccc(-c2ccccc2)cc1 [CMP259] | Inact. (Inact.(<6))
O=C[C@H](Cc1c[nH]cn1)NC[C@@H]1C[C@H]2CCCC[C@@H]2CN1C(=O)c1cccc(-c2ccccc2)c1 [CMP260] | Inact. (Inact.(<6))
O=C[C@H](Cc1c[nH]cn1)NC[C@@H]1C[C@H]2CCCC[C@@H]2CN1C(=O)c1ccccc1-c1ccccc1 [CMP261] | Inact. (Inact.(<6))
O=C[C@H](Cc1c[nH]cn1)NC[C@@H]1C[C@H]2CCCC[C@@H]2CN1C(=O)c1ccccc1 [CMP262] | Inact. (Inact.(<6))
O=C[C@H](Cc1c[nH]cn1)NC[C@H]1C[C@@H]2CCCC[C@H]2CN1C(=O)c1ccc(Br)cc1 [CMP263] | Inact. (Inact.(<6))
CCOC(=O)c1ccccc1SSc1nc(C(=O)OC)c(C)[nH]1 [CMP264] | Inact. (Inact.(<6))
COC(=O)c1ccccc1SSc1nc(C(=O)OC)c(C)[nH]1 [CMP265] | Inact. (Inact.(<6))

Structure (SMILES) | Inact.(<6)/Act.(>=6)
O=[N+]([O-])c1ccccc1SSc1nccs1 [CMP266] | Inact. (Inact.(<6))
Cc1csc(SSc2ccccc2[N+](=O)[O-])n1 [CMP267] | Inact. (Inact.(<6))
COC(=O)c1nc(SSc2ccc(Cl)cc2)[nH]c1C [CMP268] | Inact. (Inact.(<6))
COC(=O)c1nc(SSc2ccccc2[N+](=O)[O-])[nH]c1C [CMP269] | Inact. (Inact.(<6))
O=[N+]([O-])c1ccccc1SSc1ncccn1 [CMP270] | Act. (Act.(>=6))
CC(=O)Nc1cnc(SSc2ccccc2[N+](=O)[O-])s1 [CMP271] | Inact. (Inact.(<6))
CC(=O)n1nc(SSc2ccccc2[N+](=O)[O-])nc1-c1cccnc1 [CMP272] | Inact. (Inact.(<6))
Cc1nnc(SSc2ccccc2[N+](=O)[O-])o1 [CMP273] | Inact. (Inact.(<6))
Cc1cc(C)nc(SSc2ccccc2[N+](=O)[O-])n1 [CMP274] | Act. (Act.(>=6))
O=C(Oc1cncc(Cl)c1)c1cccc([N+](=O)[O-])c1 [CMP275] | Act. (Act.(>=6))
O=C(Oc1cncc(Br)c1)c1ccco1 [CMP276] | Act. (Act.(>=6))
O=C(Oc1cncc(Cl)c1)c1ccc(-c2ccc(Cl)cc2)o1 [CMP277] | Act. (Act.(>=6))
O=C(Oc1cncc(Cl)c1)c1ccc(-c2cccc([N+](=O)[O-])c2)o1 [CMP278] | Act. (Act.(>=6))
O=C(Oc1cncc(Cl)c1)c1ccccc1[N+](=O)[O-] [CMP279] | Act. (Act.(>=6))
O=C(Oc1cncc(Cl)c1)c1ccc(-c2ccc(Cl)cc2[N+](=O)[O-])o1 [CMP280] | Act. (Act.(>=6))
O=C(Oc1cncc(Cl)c1)c1ccc(-c2ccccc2[N+](=O)[O-])o1 [CMP281] | Act. (Act.(>=6))
O=C(Oc1cncc(Cl)c1)c1ccc(-c2ccc([N+](=O)[O-])cc2)o1 [CMP282] | Act. (Act.(>=6))
Cc1ccc(C(=O)N/C(=C\c2ccc(-c3cccc([N+](=O)[O-])c3)o2)C(=O)NCCCN(C)C)cc1 [CMP283] | Inact. (Inact.(<6))
Cc1ccc(C(=O)N/C(=C\c2ccc(-c3ccccc3[N+](=O)[O-])o2)C(=O)NCCCN(C)C)cc1 [CMP284] | Inact. (Inact.(<6))
O=[N+]([O-])c1cc(C(F)(F)F)ccc1S(=O)(=O)c1ccc(Cl)cc1 [CMP287] | Inact. (Inact.(<6))
Cc1cc(S(=O)(=O)c2c([N+](=O)[O-])cc(C(F)(F)F)cc2[N+](=O)[O-])c(Cl)cc1Cl [CMP288] | Act. (Act.(>=6))
Cc1nc(C)c(C(=O)C2=C(O)C(=O)N(CCCN3CCOCC3)C2c2cccc([N+](=O)[O-])c2)s1 (stereo not drawn) [CMP289] | Inact. (Inact.(<6))

target: SARS-CoV-2 3CLpro (Severe acute respiratory syndrome coronavirus 2, UniProt P0DTD1); settings: SARS-CoV pIC50 multiplied by similarity index (SI), training set compounds

Structure (SMILES) | SI*pIC50
O=C1C(=O)N(C/C=C/c2cc3ccccc3s2)c2ccc(I)cc21 [CMP98] | 4.781
O=C(Nc1ccc(Cl)cc1)c1ccc(CN2C(=O)C(=O)c3cc(I)ccc32)s1 [CMP99] | 5.052
O=C1C(=O)N(Cc2ccc(C(=O)N3CCCCC3)s2)c2ccc(I)cc21 [CMP100] | 4.909
C=C(N[C@@H](CC(C)C)C(=O)N[C@@H](CC1CCNC1=O)C(=O)Cn1[nH]c(=O)c2c([N+](=O)[O-])cccc2c1=O)[C@@H](NC(=O)[C@H](C)NC(=O)O)[C@@H](C)OCc1ccccc1 (stereo partly drawn) [CMP101] | 6.374
CC1=C(C(=O)OCCc2ccccc2)C(c2ccccc2[N+](=O)[O-])C2=C(CCCC2=O)N1 (stereo not drawn) [CMP102] | 5.754
COc1ccc(N2C(=O)NC(=O)/C(=C\c3cc(Cl)c(OCc4cccc(C(=O)O)c4)c(Cl)c3)C2=O)cc1 [CMP103] | 5.315
COc1ccc(C(c2c(O)c3cc(C)ccc3oc2=O)c2c(O)c3cc(C)ccc3oc2=O)cc1 [CMP105] | 5.171
C=CCSc1ccccc1NC(=O)/C=C/c1ccccc1 [CMP106] | 4.857
O=C(/C=C/c1ccccc1)Nc1ccccc1SC(=O)/C=C/c1ccccc1 [CMP108] | 6.127
COc1cc(C[S+]([O-])c2nc3cccnc3s2)oc(=O)c1 (stereo not drawn) [CMP109] | 5.294
CC(C)(C)NC(=O)C(c1cccnc1)N(C(=O)c1cccs1)c1ccc(C(C)(C)C)cc1 (stereo not drawn) [CMP189] | 4.453
